Results reported in US20250144067A1, “PERSONALIZED STARVATION THERAPY FOR CANCER” (Faeth Therapeutics, Inc., priority 2021, published 2025).

Each compound was assayed on NCI-H292 lung cancer cells (assay: FDA drug screening, complete media vs cholesterol-free media with simvastatin (TABLE 2)). Conditions: NCI-H292 cells, drug in cholesterol-free media with simvastatin 0.04 μM.
Type: cell-based, human
`Cc1ccc(C(=O)c2cc(O)c(O)c([N+](=O)[O-])c2)cc1` [Tolcapone] was tested, and the “Cholesterol-free media + simvastatin (0.04 μM)” value was 1.114. For `Cc1cccc(N(C)C(=S)Oc2ccc3ccccc3c2)c1` [Tolnaftate], the “Cholesterol-free media + simvastatin (0.04 μM)” value was 1.419. `CCOC(=O)[C@H](CCc1ccccc1)N[C@@H](C)C(=O)N1[C@H](C(=O)O)C[C@H]2CCCC[C@@H]21` [Trandolapril] was tested, and the “Cholesterol-free media + simvastatin (0.04 μM)” value was 1.441. `NC[C@H]1CC[C@H](C(=O)O)CC1` [Tranexamic acid] was tested, and the “Cholesterol-free media + simvastatin (0.04 μM)” value was 1.894. `COc1ccc(/C=C/C(=O)Nc2ccccc2C(=O)O)cc1OC` [Tranilast] was tested, and the “Cholesterol-free media + simvastatin (0.04 μM)” value was 1.221. In the case of `CS(=O)(=O)OC[C@H](O)[C@@H](O)COS(C)(=O)=O` [Treosulfan], the “Cholesterol-free media + simvastatin (0.04 μM)” value is reported as 1.216. For `CCCCC[C@H](O)CC[C@@H]1[C@H]2Cc3cccc(OCC(=O)O)c3C[C@H]2C[C@H]1O` [Treprostinil (sodium)], the “Cholesterol-free media + simvastatin (0.04 μM)” value was 1.119.

Same assay, conditions: NCI-H292 cells, drug in complete media
`Cc1ccc(C(=O)c2cc(O)c(O)c([N+](=O)[O-])c2)cc1` [Tolcapone] was tested, and the “Complete Media” value was 0.8994. With `Cc1cccc(N(C)C(=S)Oc2ccc3ccccc3c2)c1` [Tolnaftate] the “Complete Media” value was 1.24. `CCOC(=O)[C@H](CCc1ccccc1)N[C@@H](C)C(=O)N1[C@H](C(=O)O)C[C@H]2CCCC[C@@H]21` [Trandolapril] was tested, and the “Complete Media” value was 1.221. For `NC[C@H]1CC[C@H](C(=O)O)CC1` [Tranexamic acid], the “Complete Media” value was 1.678. For `COc1ccc(/C=C/C(=O)Nc2ccccc2C(=O)O)cc1OC` [Tranilast], the “Complete Media” value was 1.04. With `CS(=O)(=O)OC[C@H](O)[C@@H](O)COS(C)(=O)=O` [Treosulfan] the “Complete Media” value was 1.032. `CCCCC[C@H](O)CC[C@@H]1[C@H]2Cc3cccc(OCC(=O)O)c3C[C@H]2C[C@H]1O` [Treprostinil (sodium)] was tested, and the “Complete Media” value was 0.898.

Same assay, conditions: complete media vs cholesterol-free media + simvastatin (0.04 μM); >0 enhanced anti-cancer activity, about 0 neutral, <0 antagonist
`Cc1ccc(C(=O)c2cc(O)c(O)c([N+](=O)[O-])c2)cc1` [Tolcapone] showed a Difference of −0.21. `Cc1cccc(N(C)C(=S)Oc2ccc3ccccc3c2)c1` [Tolnaftate] was tested, and the Difference was −0.18. `CCOC(=O)[C@H](CCc1ccccc1)N[C@@H](C)C(=O)N1[C@H](C(=O)O)C[C@H]2CCCC[C@@H]21` [Trandolapril] gave a Difference of −0.22. In the case of `NC[C@H]1CC[C@H](C(=O)O)CC1` [Tranexamic acid], the Difference is reported as −0.22. Work on `COc1ccc(/C=C/C(=O)Nc2ccccc2C(=O)O)cc1OC` [Tranilast] yielded a Difference of −0.18. For `CS(=O)(=O)OC[C@H](O)[C@@H](O)COS(C)(=O)=O` [Treosulfan], the Difference was −0.18. `CCCCC[C@H](O)CC[C@@H]1[C@H]2Cc3cccc(OCC(=O)O)c3C[C@H]2C[C@H]1O` [Treprostinil (sodium)] showed a Difference of −0.22.

The compounds below were run on NCI-H292 lung cancer cells (assay: FDA drug screening, complete media vs cholesterol-free media without statin (TABLE 1)). Conditions: Complete minus Cholesterol-free; >0 enhanced anti-cancer activity, about 0 neutral, <0 antagonist.
Type: cell-based, human
Work on `COc1ccc(/C=C/C(=O)Nc2ccccc2C(=O)O)cc1OC` [Tranilast] yielded a Difference of −0.27. Compound `CCCCC[C@H](O)CC[C@@H]1[C@H]2Cc3cccc(OCC(=O)O)c3C[C@H]2C[C@H]1O` [Treprostinil (sodium)] has a Difference of −0.02.

Same assay, conditions: Complete minus Cholesterol-free; greater than 0 enhanced anti-cancer activity, about 0 neutral, below 0 antagonist
`Cc1ccc(C(=O)c2cc(O)c(O)c([N+](=O)[O-])c2)cc1` [Tolcapone] gave a Difference of −0.19. `CCOC(=O)[C@H](CCc1ccccc1)N[C@@H](C)C(=O)N1[C@H](C(=O)O)C[C@H]2CCCC[C@@H]21` [Trandolapril] showed a Difference of −0.10.

Same assay, conditions: Complete minus Cholesterol-free; greater than 0 enhanced anti-cancer activity, about 0 neutral, below 0 antagonists
Work on `Cc1cccc(N(C)C(=S)Oc2ccc3ccccc3c2)c1` [Tolnaftate] yielded a Difference of −0.53. Work on `NC[C@H]1CC[C@H](C(=O)O)CC1` [Tranexamic acid] yielded a Difference of −0.77. `CS(=O)(=O)OC[C@H](O)[C@@H](O)COS(C)(=O)=O` [Treosulfan] was tested, and the Difference was −0.50.

Same assay, conditions: NCI-H292 cells in cholesterol-free media without statin
In the case of `Cc1cccc(N(C)C(=S)Oc2ccc3ccccc3c2)c1` [Tolnaftate], the Cholesterol-free is reported as 1.723. `NC[C@H]1CC[C@H](C(=O)O)CC1` [Tranexamic acid] was tested, and the Cholesterol-free was 2.288. In the case of `CS(=O)(=O)OC[C@H](O)[C@@H](O)COS(C)(=O)=O` [Treosulfan], the Cholesterol-free is reported as 1.319.

Same assay, conditions: NCI-H292 cells in complete media
`Cc1cccc(N(C)C(=S)Oc2ccc3ccccc3c2)c1` [Tolnaftate] was tested, and the Complete was 1.191. Work on `NC[C@H]1CC[C@H](C(=O)O)CC1` [Tranexamic acid] yielded a Complete of 1.522. `CS(=O)(=O)OC[C@H](O)[C@@H](O)COS(C)(=O)=O` [Treosulfan] gave a Complete of 0.8211.

Same assay, conditions: NCI-H292 cells, FDA drug library screen, cholesterol-free media without statin
`Cc1ccc(C(=O)c2cc(O)c(O)c([N+](=O)[O-])c2)cc1` [Tolcapone] showed a Cholesterol-free of 1.149. `CCOC(=O)[C@H](CCc1ccccc1)N[C@@H](C)C(=O)N1[C@H](C(=O)O)C[C@H]2CCCC[C@@H]21` [Trandolapril] gave a Cholesterol-free of 1.068.

Same assay, conditions: NCI-H292 cells, FDA drug library screen, complete media
`Cc1ccc(C(=O)c2cc(O)c(O)c([N+](=O)[O-])c2)cc1` [Tolcapone] was tested, and the Complete was 0.9627. Work on `CCOC(=O)[C@H](CCc1ccccc1)N[C@@H](C)C(=O)N1[C@H](C(=O)O)C[C@H]2CCCC[C@@H]21` [Trandolapril] yielded a Complete of 0.9671.

Same assay, conditions: NCI-H292 cells, cholesterol-free media without statin
In the case of `COc1ccc(/C=C/C(=O)Nc2ccccc2C(=O)O)cc1OC` [Tranilast], the Cholesterol-free is reported as 0.8255.

Same assay, conditions: NCI-H292 cells, cholesterol-free media without statin, FDA drug library screen
Compound `CCCCC[C@H](O)CC[C@@H]1[C@H]2Cc3cccc(OCC(=O)O)c3C[C@H]2C[C@H]1O` [Treprostinil (sodium)] has a Cholesterol-free of 1.017.

Same assay, conditions: NCI-H292 cells, complete media
`COc1ccc(/C=C/C(=O)Nc2ccccc2C(=O)O)cc1OC` [Tranilast] showed a Complete of 0.5543.

Same assay, conditions: NCI-H292 cells, complete media, FDA drug library screen
`CCCCC[C@H](O)CC[C@@H]1[C@H]2Cc3cccc(OCC(=O)O)c3C[C@H]2C[C@H]1O` [Treprostinil (sodium)] was tested, and the Complete was 0.9998.
